In series [1] the test system is BMDM. In words: Inhibition of IL-10-induced CD163 expression in human MDM cells at 20 ug/ml incubated for 24 hrs by ELISA. To be noted: dose 20.0 µg/ml. The format is functional, cell-based. Background: An ELISA detects its analyte on a solid surface through an enzyme-linked reagent.
Series [2] can be described thus: Cytotoxicity against human MDM cells assessed as reduction in cell viability at 20 ug/ml incubated for 24 hrs by MTT assay. The format is cell-based. To be noted: dose 20 µg/ml. On the technique in general: Formazan colour is commonly taken as a measure of viable cells.
Series [3] in a line: Cytotoxicity against human MDM cells assessed as reduction in cell viability at 40 ug/ml incubated for 24 hrs by MTT assay. The format is cell-based. The following applies: dose 40 µg/ml.
Series [4] can be described thus: Cytotoxicity against human MDM cells assessed as reduction in cell viability at 20 ug/ml incubated for 48 hrs by MTT assay. The format is cell-based. The following applies: dose 20 µg/ml.
For series [5], the system named is HT-22. In words: Protection against TM mediated ER stress-induced cell death in mouse HT-22 cells assessed as increase in cell viability at 10 uM incubated for 24 hrs by MTT assay. The format is functional, cell-based.
For series [6], the system named is HT-22. In words: Cytotoxicity against mouse HT-22 cells assessed as reduction in cell viability at 10 uM incubated for 24 hrs by MTT assay. The following applies: ht-22, 24 h. It counts as cell-based.
Series [7] has as its system HT-22. In words: Cytotoxicity against mouse HT-22 cells assessed as reduction in cell viability at incubated for 24 hrs by MTT assay. To be noted: HT-22, 24 h. The format is cell-based.
For series [8], the system named is HT-22. In words: Cytotoxicity against mouse HT-22 cells assessed as reduction in cell viability at 10 uM incubated for 24 hrs in presence of tunicamycin by MTT assay. The format is cell-based. To be noted: ht-22, 24 h.

Active and inactive are the calls of the source. No cut-off for these calls is given here.

For the molecule `CC1=CC[C@@H]2[C@@]3(C)CC[C@H](O)C(C)(C)[C@@H]3CC[C@@]2(C)[C@]12Cc1c(cc(-c3cccnc3)oc1=O)O2`, the inhibition result in series [1] was “Active”. Further, the figures for the Activity entry in series [2], in series [3] and in series [4] were “Non-Toxic”, “Toxic” and “Toxic”, respectively.
Take `CC1=CC[C@@H]2[C@@]3(C)CCC(=O)C(C)(C)[C@@H]3CC[C@@]2(C)[C@]12Cc1c(cc(-c3cccnc3)oc1=O)O2` [DECATURIN D]: in series [1], the inhibition result was “Active”. In addition, the result in series [5] was Active. Also, the Activity result in series [2] was “Non-Toxic”; in series [3] it was “Toxic”; in series [4], “Toxic”; in series [6], “Toxic”.
Take `C=C(C)[C@@H]1CC[C@]2(C)[C@H](CC=C(C)[C@]23Oc2cc(-c4cccnc4)oc(=O)c2[C@@H]3O)[C@@]12CCC(=O)OC2` [OXALICINE A]: in series [7], the IC50 amounted to 5.9 µM. Further, in series [8], the Activity entry is “Toxic”.
For the molecule `C/C(=C\CC/C(C)=C/Cc1c(O)cc(-c2cccnc2)oc1=O)CC/C=C(\C)CCC(O)C(C)(C)O` (centres undefined), the inhibition entry in series [1] was “Active”. Moreover, in series [5], the outcome was Active. The Activity result in series [2] is reported as “Non-Toxic”; in series [3] it was “Toxic”; in series [4], “Toxic”; in series [6], “Non-Toxic”.
On to `CC1=CC[C@@H]2[C@]34CC[C@](O)(OC3)C(C)(C)[C@@H]4CC[C@@]2(C)[C@@]12Oc1cc(-c3cccnc3)oc(=O)c1[C@@H]2O` [DECATURIN B], for which, in series [1], the inhibition result was “Active”. The outcome in series [5] was Active. Also, the Activity entry in series [2] was “Non-Toxic”; in series [3] it was “Toxic”; in series [4] it was “Toxic”; in series [6] it was “Toxic”.

A word on the IC50: it is the midpoint of a concentration-inhibition curve.

The values are drawn from ChEMBL document CHEMBL4725266, “Decaturenol A and known oxalicine related meroterpenoids isolated from Penicillium decaturense RO050, and their new biological activities” (Bioorg Med Chem Lett, 2020).
